Data published in patent US20140051762A1, “POLYCATIONIC COMPOUNDS AND USES THEREOF” (priority 2004, published 2014).
“And” between values parts separate entries of the source, which are not always exact repeats. Equal entries are not always repeated.

Columns and labels:
Factor Xa [1] = test: anti-heparin assay, % Factor Xa inhibition at single concentration (chromogenic substrate S-2765); type: biochemical; details: Single concentration (10 ug/ml)
Protocol: (§1) The following example illustrates the heparin antagonistic effects of polycationic compounds of the present invention. To determine the anti-heparin activity of the polycationic compounds an assay measuring the percent inhibition using a fixed concentration of polycationic compound or concentrations of polycationic compounds causing lysis of 50% of human red blood cells were conducted.
(§2) 10 IU of anti-thrombin was dissolved in 10 ml of buffer, resulting in a 1 IU/ml stock solution (250×) of the anti-thrombin. The 1 IU/ml (250×) stock solution of anti-thrombin and a 336 mM stock solution of NaCl were diluted into a total volume of 50 μl buffer so that the final anti-thrombin concentration was 0.004 IU/sample well and the NaCl was 150 mM/sample well. 1 μl of the compound to be tested, final concentration 10 μg/ml (corresponding to 0.5 logarithmic antagonist dilution) is added to the sample well. The samples are mixed and allowed to incubate at room temperature for 20 minutes. 50 μl of factor Xa dissolved in buffer is added to the sample well to a final concentration of 0.14 knat/well (2 μl of the 7.1 kna/1 ml stock solution to a final sample well buffer volume of 100 μl). The samples were mixed and further incubated at room temperature for 10 minutes. 10 μl of a 4 mM stock solution of the substrate S-2765 was added to each sample well for a final concentration of 0.4 mM in each sample well. The samples were mixed and hydrolyses of the chromogenic substrate Z-D-Arg-Gly-Arg-pNA (S-2765), thus liberating the chromophoric group pNA (p-nitroaniline), was monitored at 405 nm. The samples were mixed every 30 seconds to maintain a uniform mixture. ThermoLabsystems Multiskan Spectrum spectrophotometer was used to measure the absorbance spectrums. The increase in absorbance was proportional to the enzyme (factor Xa) activity. The % inhibition of factor Xa was determined using a standard curve.

[2] = system: FGF2-induced angiogenesis in the CAM model; test: FGF2-induced angiogenesis in the chick chorioallantoic membrane (CAM) model; type: in vivo, chick embryo; details: for % inhibition ± SEM / Branch pts ± SEM: Table 3; for Mean % inhibition ± SEM: Table 4, n = 8
Protocol: The following example illustrates the anti-angiogenic effect of exemplary polycationic compounds of the present invention. Ten-day old embryos were purchased from Spafas, Inc. (Preston, Conn.) and were incubated at 37° C. with 55% relative humidity. In the dark with the help of a candling lamp, a small hole was punctured in the shell concealing the air sac with a hypodermic needle. A second hole was punctured in the shell on the broadside of the egg directly over an avascular portion of the embryonic membrane, as observed during candling. A false air sac was created beneath the second hole by the application of negative pressure to the first hole, which caused the chorioallantoic membrane (CAM) to separate from the shell. A window, approximately 1.0 cm^2, was cut in the shell over the dropped CAM with the use of a small crafts grinding wheel (Dremel, Division of Emerson Electric Company Racine, Wis.) which allowed direct access to the underlying CAM. Filter disks of #1 filter paper (Whatman International, United Kingdom) were soaked in 3 mg/mL cortisone acetate (Sigma, St. Louis, Mo.) in a solution of 95% ethanol and water and subsequently air dried under sterile conditions. FGF2 (Life Technologies, Gaithersburg, Md.) was used to grow vessels on the CAMs of 10 day old chick embryos. Sterile filter disks adsorbed with FGF2 dissolved in PBS at 1μg/mL were placed on growing CAMs. […] At 24 h, test compounds or control vehicle was added directly to CAM topically.
(§3) CAM tissue directly beneath FGF2-saturated filter disk was resected from embryos treated 48 hours prior with test compound or control. Tissues were washed three times with PBS. Sections were placed in a 35-mm petri dish (Nalgen Nunc, Rochester, N.Y.) and examined under a SV6 stereomicroscope (Karl Zeiss, Thornwood, N.Y.) at 50× magnification. Digital images of CAM sections adjacent to filters were collected using a 3-CCD color video camera system (Toshiba America, New York, N.Y.) and analyzed using Image-Pro Plus software (Media Cybernetics, Silver Spring, Md.). Table 4 contains the number of vessel branch points contained in a circular region equal to the area of a filter disk counted for each section.
as §3, with “48 h” for “48 hours”, “with” for “with test”, “dish (Nalge” for “dish (Nalgen”, “analyzed with the” for “analyzed using”, “Md.).” for “Md.). Table 4 contains the number of vessel branch points contained in a circular region equal to the area of a filter disk counted for each section.”

Factor Xa [3] = test: Factor Xa inhibition EC50 (fixed heparin concentrations, different amounts of heparin antagonist); type: biochemical; details: read-out: FactorXa Inhibition: EC50
Protocol: as §1, §2
(§4) Factor Xa Inhibition: EC50. To determine the concentration of polycationic compound that causes about 50% […], fixed heparin concentrations were used and different amounts of heparin antagonists were added.

human red blood cells = test: lysis of 50% of human red blood cells (HC50); type: cell-based
Protocol: as §1, §4

heparin = test: effect on coagulation time and heparin efficacy
Protocol: The following example illustrates the effect of a polycationic compound of the present invention on coagulation time. The anti-heparin assay as described herein was used. The assay contained either 1 mg/L, 2 mg/L or 4 mg/I of heparin and increasing amounts of Compound 26 was added.

[4] = Heparin 1 mg/L, Compound 26 1.25 mg/L
[5] = Heparin 1 mg/L, Compound 26 2 mg/L
[6] = Heparin 1 mg/L, Compound 26 2.5 mg/L
[7] = Heparin 1 mg/L, Compound 26 4 mg/L
[8] = Heparin 2 mg/L, Compound 26 2.5 mg/L
[9] = Heparin 2 mg/L, Compound 26 4 mg/L
[10] = Heparin 2 mg/L, Compound 26 5 mg/L
[11] = Heparin 2 mg/L, Compound 26 6 mg/L
[12] = Heparin 2 mg/L, Compound 26 10 mg/L
[13] = Heparin 4 mg/L, Compound 26 2.5 mg/L
[14] = Heparin 4 mg/L, Compound 26 4 mg/L
[15] = Heparin 4 mg/L, Compound 26 5 mg/L
[16] = Heparin 4 mg/L, Compound 26 6 mg/L
[17] = Heparin cell empty (4 mg/L from line above), Compound 26 10 mg/L

**Q.** Which “% FactorXa Inhibition” value (Factor Xa [1]) does the source give for `N=C(N)NCCOc1cc(OCCNC(=N)N)c(C(=O)Nc2cccc(N)c2SCCNC(=N)N)cc1C(=O)Nc1cccc(N)c1SCCNC(=N)N` [Compound 27] here?
**A.** 8.886%

**Q.** And the “% inhibition ± SEM” value ([2]; 0.1 ug + FGF2 (1 ug))?
**A.** 34 ± 9%

**Q.** And the “Branch pts ± SEM” value ([2]; 0.1 ug + FGF2 (1 ug))?
**A.** 144 ± 9

**Q.** And the EC50 (Factor Xa [3])?
**A.** 9.7 µM

**Q.** What about the HC50 (human red blood cells) of the same compound?
**A.** >2,000 μg/ml

**Q.** For `COc1ccc(NC(=O)C(CCCCN)NC(=O)c2cc(NC(=O)C(CCCCN)NC(=O)c3cc(NC(=O)C(CCCCN)NC(=O)c4cc(NC(=O)C(N)CCCCN)ccc4OC)ccc3OC)ccc2OC)cc1C(N)=O` (stereo not shown) [Compound 50], which “Mean % inhibition ± SEM” value ([2]; 1.0 ug + FGF2 (1 ug)) is on record?
**A.** 21 ± 9%

**Q.** What about the “Mean % inhibition ± SEM” value ([2]; 3.0 ug + FGF2 (1 ug)) of the same compound?
**A.** 42 ± 8%

**Q.** And the “Mean % inhibition ± SEM” value ([2]; 10 ug + FGF2 (1 ug))?
**A.** 66 ± 7%

**Q.** What about the HC50 (human red blood cells) of the same compound?
**A.** 637 μg/ml and 377 μM

**Q.** Which results are given for `NCCOc1cc(OCCN)c(C(=O)Nc2cccc(N)c2SCCN)cc1C(=O)Nc1cccc(N)c1SCCN` [Compound 25]?
**A.** % FactorXa Inhibition (Factor Xa [1]): 0%; EC50 (Factor Xa [3]): 5.3 µM; HC50 (human red blood cells): >2,000 μg/ml

**Q.** What does the source list for `N=C(N)NCCC[C@@H](N)C(=O)Nc1cccc(NC(=O)c2cc(C(=O)Nc3cccc(NC(=O)[C@H](N)CCCNC(=N)N)c3SCCN)c(OCCN)cc2OCCN)c1SCCN` [Compound 26]?
**A.** % FactorXa Inhibition (Factor Xa [1]): 48.14%; Coagulation Time (heparin; [4]): 42.8 s; Heparin Efficacy (heparin; [4]): 0.6506; Coagulation Time (heparin; [5]): 33.4 s; Heparin Efficacy (heparin; [5]): 0.2402; Coagulation Time (heparin; [6]): 31.3 s; Heparin Efficacy (heparin; [6]): 0.1485; Coagulation Time (heparin; [7]): 27.9 s; Heparin Efficacy (heparin; [7]): −1.67E−08; Coagulation Time (heparin; [8]): 40.2 s; Heparin Efficacy (heparin; [8]): 0.1108; Coagulation Time (heparin; [9]): 33.9 s; Heparin Efficacy (heparin; [9]): 0.03149; Coagulation Time (heparin; [10]): 31.9 s; Heparin Efficacy (heparin; [10]): 0.006297; Coagulation Time (heparin; [11]): 31.8 s; Heparin Efficacy (heparin; [11]): 0.005038; Coagulation Time (heparin; [12]): 34.4 s; Heparin Efficacy (heparin; [12]): 0.03778; Coagulation Time (heparin; [13]): 124.8 s; Heparin Efficacy (heparin; [13]): 0.513; Coagulation Time (heparin; [14]): 87.4 s; Heparin Efficacy (heparin; [14]): 0.3108; Coagulation Time (heparin; [15]): 55.8 s; Heparin Efficacy (heparin; [15]): 0.14; Coagulation Time (heparin; [16]): 35.4 s; Heparin Efficacy (heparin; [16]): 0.02973; Coagulation Time (heparin; [17]): 29.9 s; Heparin Efficacy (heparin; [17]): −2.06E−09; effect on coagulation time (in words) (heparin; varying concentrations of heparin): decreased the coagulation time; % inhibition ± SEM ([2]; 1.0 ug + FGF2 (1 ug)): 55 ± 8%; Branch pts ± SEM ([2]; 1.0 ug + FGF2 (1 ug)): 123 ± 7; EC50 (Factor Xa [3]): 2 µM; HC50 (human red blood cells): >2,000 μg/ml

**Q.** For `CC(C)(C)c1cc(NC(=O)c2cccc(C(=O)Nc3cc(C(C)(C)C)cc(NC(=O)[C@H](N)CCCNC(=N)N)c3SCCN)c2)c(SCCN)c(NC(=O)[C@H](N)CCCNC(=N)N)c1` [Compound 7], which “% FactorXa Inhibition” value (Factor Xa [1]) is on record?
**A.** 5.506%

**Q.** What about the EC50 (Factor Xa [3]) of the same compound?
**A.** 3.7 µM

**Q.** What about the HC50 (human red blood cells) of the same compound?
**A.** 715 μg/ml and 519 μM
